Columns and labels:
[1] = tested on: MOG-induced experimental autoimmune encephalomyelitis mouse model; assay: Activity assessment 1 in MOG-induced experimental autoimmune encephalomyelitis mouse model; format: in vivo, C57BL/6J mice; settings: 30 mg/kg orally twice daily for 15 days starting 55 days after MOG35-55 inoculation
Method: The effect of the compound of Example 1 on increase of neurological score was assessed in the MOG-induced experimental autoimmune encephalomyelitis mouse model. The MOG-induced experimental autoimmune encephalomyelitis mouse model was produced according to the method of Jianfeng et al. (The Journal of Immunology, 2009, vol. 182, p. 4036-4045) with partial modification. A PBS solution prepared to contain a synthetic partial peptide of MOG (MOG35-55; CSBio) at a concentration of 4 mg/mL was mixed with an equal volume of Freund's complete adjuvant, and a total of 0.1 mL (0.05 mL per flank) of the resulting MOG35-55 dosing solution was inoculated intradermally into the bilateral flanks of C57BL/6J mice (male, 10 weeks old, Charles River Laboratories Japan, Inc.). On the day of inoculation of the MOG35-55 dosing solution and on the second day after the inoculation, 200 μL of pertussis toxin (Sigma Co. LLC) prepared at a concentration of 1 μg/mL was further administered intraperitoneally to the mice. A test compound was administered orally at a dose of 30 mg/kg twice daily for a period of 15 days starting 55 days after the inoculation of the MOG35-55 dosing solution. The test compound was suspended in a 0.5% methylcellulose solution (hereinafter referred to as vehicle), and the resulting suspension was used. […]

[2] = tested on: Human fibrosarcoma cells (HT-1080 cells); assay: In vitro inhibitory action against ferroptosis (Erastin-induced cell death, Cell Counting Kit-8); format: cell-based; settings: Erastin 3 μmol/L, 24 hours
[3] = In vitro radical scavenging action (DPPH method); settings: 30 minutes at room temperature, maximum concentration 100 μmol/L
[4] = tested on: MOG-induced experimental autoimmune encephalomyelitis mouse model; assay: Activity assessment 5 in MOG-induced experimental autoimmune encephalomyelitis mouse model; format: in vivo, C57BL/6J mice; settings: 10 mg/kg orally twice daily for 15 days starting 52 days after MOG35-55 inoculation; vs vehicle-dosing group (2.13)
Method: (§1) A PBS solution prepared to contain a synthetic partial peptide of MOG (MOG35-55; CSBio) at a concentration of 4 mg/mL was mixed with an equal volume of Freund's complete adjuvant, and a total of 0.1 mL (0.05 mL per flank) of the resulting MOG35-55 dosing solution was inoculated intradermally into the bilateral flanks of C57BL/6J mice (male, 10 weeks old, Charles River Laboratories Japan, Inc.). On the day of inoculation of the MOG35-55 dosing solution and on the second day after the inoculation, 200 μL of pertussis toxin (Sigma Co. LLC) prepared at a concentration of 1 μg/mL was further administered intraperitoneally to the mice.
(§2) The compound of Example 11, the compound of Example 32, and the compound of Example 36 were used as test compounds to assess the effect of the test compounds on increase of neurological score in the MOG-induced experimental autoimmune encephalomyelitis mouse model. […] In addition, the score was determined by the following criteria: 0, normal; 0.5, partial drooping tail; 1, full drooping tail or hind-limb weakness; 2, full drooping tail and hind-limb weakness; 3, hind-limb partial paralysis; 4, hind-limb complete paralysis; 5, fore- and hind-limb complete paralysis. […]

[5] = tested on: MOG-induced experimental autoimmune encephalomyelitis mouse model; assay: Activity assessment 4 in MOG-induced experimental autoimmune encephalomyelitis mouse model; format: in vivo, C57BL/6J mice; settings: 10 mg/kg orally twice daily for 16 days starting 52 days after MOG35-55 inoculation; vs vehicle-dosing group (2.25)
Method: as §1, §2

[6] = tested on: MOG-induced experimental autoimmune encephalomyelitis mouse model; assay: Activity assessment 6 in MOG-induced experimental autoimmune encephalomyelitis mouse model; format: in vivo, C57BL/6J mice; settings: 10 mg/kg orally twice daily for 12 days starting 52 days after MOG35-55 inoculation; vs vehicle-dosing group (2.13)
Method: as §1, §2

[7] = evaluation concentration 30 μmol/L
[8] = evaluation concentration 10 μmol/L

| Structure (SMILES) | neurological score ([1]; next day after last administration, mean, n=7) | neurological score reduction rate ([1]; vs vehicle-dosing group (2.43)) | Ferroptosis inhibition rate (%) [2, 7] | EC50 [3] | neurological score reduction rate [4] | neurological score reduction rate [5] | Ferroptosis inhibition rate (%) [2, 8] | neurological score reduction rate [6] |
| --- | --- | --- | --- | --- | --- | --- | --- | --- |
| Cl.c1ccc(C2CCc3ccccc3N2)cc1 (stereo not shown) [Example 1, 2-phenyl-1,2,3,4-tetrahydroquinoline hydrochloride] | 1.29 | 46.9% | 110.5% | > 100 µM | – | – | – | – |
| NS(=O)(=O)c1ccc(C2CCc3ccccc3N2)cc1 (stereo not shown) [Example 33, 4-(1,2,3,4-tetrahydroquinolin-2-yl)benzenesulfonamide] | – | – | 84.88% | > 100 µM | 38.2% | – | – | – |
| NC(=O)c1ccc(C2CCc3ccccc3N2)cc1 (stereo not shown) [Example 38, 4-(1,2,3,4-tetrahydroquinolin-2-yl)benzamide] | – | – | 104.0% | > 100 µM | – | 27.8% | – | – |
| NS(=O)(=O)c1ccc(C2CCc3cc(F)ccc3N2)cc1 (stereo not shown) [Example 108, 4-(6-fluoro-1,2,3,4-tetrahydroquinolin-2-yl)benzenesulfonamide] | – | – | – | > 100 µM | – | – | 83.78% | 29.4% |
| NS(=O)(=O)c1ccc(C2CCc3cc(Cl)ccc3N2)cc1 (stereo not shown) [Example 117, 4-(6-chloro-1,2,3,4-tetrahydroquinolin-2-yl)benzenesulfonamide] | – | – | – | > 100 µM | – | – | 76.27% | 32.4% |
| Cc1ccc2c(c1)CCC(c1ccc(S(N)(=O)=O)cc1)N2 (stereo not shown) [Example 119, 4-(6-methyl-1,2,3,4-tetrahydro-quinolin-2-yl)benzenesulfonamide] | – | – | – | > 100 µM | – | 33.3% | 89.67% | – |

— US12570639B2, “Tetrahydroquinoline derivative and medicinal use thereof” (Toray Industries, Inc., priority 2020, dated 2026)
